Test system: TGF-β activation
Experiment: Inventors' additional tests of TGF-β activation with synthetic KRFK and LSKL peptides
Excerpt: Moreover, the group of Murphy-Ullrich at the University of Alabama, U.S.A. investigated the adherent-type TGF-β activation reaction by a glycoprotein, thrombospondin 1, and reported that TGF-β is activated by binding of KRFK sequence corresponding to amino acid numbers 412-415 of thrombospondin 1 to LSKL sequence corresponding to amino acid numbers 54-57 of LAP, and that the synthetic KRFK peptide activates TGF-β, whereas the synthetic LSKL peptide inhibits the TGF-β activation reaction (Schultz-Cherry et al., J. Biol. Chem. 270: 7304-7310, 1995; Crawford et al., Cell 93: 1159-1170, 1998; Ribeiro et al., J. Biol. Chem. 274: 13586-13593, 1999; Murphy-Ullrich and Poczatek Cytokine & Growth Factor Reviews 11: 59-69, 2000). The LSKL sequence derived from amino acid numbers 54-57 of the aforementioned LAP overlaps with the plasmin cleavage site K56-L57 identified by the present inventors. By binding to and cutting this portion, respectively, thrombospondin 1 and proteases may inhibit a noncovalent bond between this portion and active TGF-β molecule, resulting in release of the active TGF-β molecule from a latent complex (namely the TGF-β activation reaction). […] Murphy-Ullrich et al. indicated an involvement of a thrombospondin 1-dependent adherent-type TGF-β activation reaction in the pathogenesis of lung or pancreatic diseases, but not in the pathogenesis of liver diseases.

Question: With LSKL [LSKL peptide] as the substance, how does the “inhibition of TGF-β activation” value read?
Answer: Its value is “could not reproduce”.
